Earlier results as cited in patent US20240423896A1, “METHOD FOR IMPROVING THE TACTILE SENSATION OF DYED KERATINOUS FIBRES, IN PARTICULAR HUMAN HAIR” (HENKEL AG & CO. KGAA, priority 2021, published 2024).

Settings: 25° C.

SMILES	solubility in water	also measured
CCN(Cc1cccc(S(=O)(=O)[O-])c1)c1ccc(C(=C2C=CC(=[N+](CC)Cc3cccc(S(=O)(=O)[O-])c3)C=C2)c2ccccc2S(=O)(=O)[O-])cc1.[Na+].[Na+] [Acid Blue 9, disodium salt of 2-({4-[N-ethyl(3-sulfonatobenzyl]amino]phenyl}{4-(N-ethyl(3-sulfonatobenzyl)imino]-2,5-cyclohexadien-1-ylidene}methyl)-benzenesulfonate]		water solubility: more than 20 wt. %
Nc1cc(S(=O)(=O)[O-])cc2cc(S(=O)(=O)[O-])c(N=Nc3ccccc3)c(O)c12.[Na+].[Na+] [Acid Red 33, disodium salt of 5-amino-4-hydroxy-3-(phenylazo)-naphthalene-2,7-disulfonate]	2500 µg/mL	
O=C([O-])c1c(Cl)c(Cl)c(Cl)c(Cl)c1-c1c2cc(Br)c(=O)c(Br)c-2oc2c(Br)c([O-])c(Br)cc12.[Na+].[Na+] [Acid Red 92, disodium salt of 3,4,5,6-tetrachloro-2-(1,4,5,8-tetrabromo-6-hydroxy-3-oxanthene-9-yl) benzoic acid]	greater than 10 g/L	
O=S(=O)([O-])c1ccc(N=Nc2c(O)ccc3ccccc23)cc1.[Na+] [Acid Orange 7, sodium salt of 4-[(2-hydroxy-1-naphthyl)azo]benzene sulphonate]	more than 7 g/L	
O=C([O-])C1=NN(c2ccc(S(=O)(=O)[O-])cc2)C(=O)C1N=Nc1ccc(S(=O)(=O)[O-])cc1.[Na+].[Na+].[Na+] (centres unmarked) [Acid Yellow 23, trisodium salt of 4,5-dihydro-5-oxo-1-(4-sulfophenyl)-4-((4-sulfophenyl)azo)-1H-pyrazole-3-carboxylic acid]		solubility in water (in words): readily soluble in water
